Test results from ChEMBL document CHEMBL1152992, “RmtC 16S rRNA methyltransferase in Australia” (2008).
Values after ≈ are worked out from the molar mass of the structure shown.

These molecules were tested on Proteus mirabilis (assay: Antimicrobial activity against Proteus mirabilis JIE273 expressing 16S rRNA methyltransferase RmtC).
Type: functional

Row | MIC [µg/mL] | SMILES
1 | > 16 | CC1(C)S[C@@H]2[C@H](NC(=O)[C@H](N)c3ccccc3)C(=O)N2[C@H]1C(=O)O [AMPICILLIN]
2 | > 32 | CO/N=C(\C(=O)N[C@@H]1C(=O)N2C(C(=O)O)=C(COC(C)=O)CS[C@H]12)c1csc(N)n1 [CEFOTAXIME]
3 | ≤ 4 | CO[C@@]1(NC(=O)Cc2cccs2)C(=O)N2C(C(=O)O)=C(COC(N)=O)CS[C@@H]21 [CEFOXITIN]
4 | > 32 | CO/N=C(\C(=O)N[C@@H]1C(=O)N2C(C(=O)O)=C(CSc3nc(=O)c(O)nn3C)CS[C@H]12)c1csc(N)n1 [CEFTRIAXONE]
5 | > 16 | CO/N=C(\C(=O)N[C@@H]1C(=O)N2C(C(=O)O)=C(COC(N)=O)CS[C@H]12)c1ccco1 [CEFUROXIME]
6 | > 16 | CC(=O)OCC1=C(C(=O)O)N2C(=O)[C@@H](NC(=O)Cc3cccs3)[C@H]2SC1 [CEPHALOTHIN]
7 | > 2 | O=C(O)c1cn(C2CC2)c2cc(N3CCNCC3)c(F)cc2c1=O [CIPROFLOXACIN]
8 | ≤ 2 | C[C@@H](O)[C@H]1C(=O)N2C(C(=O)O)=C(SCCNC=N)C[C@H]12 [IMIPENEM ANHYDROUS]
9 | > 4 | C[C@H]1COc2c(N3CCN(C)CC3)c(F)cc3c(=O)c(C(=O)O)cn1c23.C[C@H]1COc2c(N3CCN(C)CC3)c(F)cc3c(=O)c(C(=O)O)cn1c23.O [LEVOFLOXACIN]
10 | 32 (≈ 83.2 µM) | CC1(C)S[C@@H]2[C@H](NC(=O)[C@H](C(=O)O)c3ccsc3)C(=O)N2[C@H]1C(=O)O [TICARCILLIN]

Row | SMILES | MIC [µg/mL]
11 | C[C@H]1[C@H](NC(=O)/C(=N\OC(C)(C)C(=O)O)c2csc(N)n2)C(=O)N1S(=O)(=O)O [AZTREONAM] | > 16
12 | CC(C)(O/N=C(\C(=O)N[C@@H]1C(=O)N2C(C(=O)[O-])=C(C[n+]3ccccc3)CS[C@H]12)c1csc(N)n1)C(=O)O [CEFTAZIDIME] | > 16
13 | CCn1cc(C(=O)O)c(=O)c2ccc(C)nc21 [NALIDIXIC ACID] | > 32
